In article PMC8911181, “A Novel CDK4/6 and PARP Dual Inhibitor ZC-22 Effectively Suppresses Tumor Growth and Improves the Response to Cisplatin Treatment in Breast and Ovarian Cancer” (International Journal of Molecular Sciences, 2022):

Assays:
[1] = system: OVCAR5 xenograft tumors; experiment: Ovarian cancer xenograft mouse model, tumor growth; assay type: in vivo, mice; conditions: 1.5 mg/kg cisplatin and 50 mg/kg ZC-22 ip
Experimental: Six-week-old female athymic nude mice (Homozygous) were purchase from Vital River Laboratories (Beijing, China) and maintained under the guidelines for laboratory animals of Nankai university (NKU). Mice were injected subcutaneously with 2 × 10^6 MDA-MB-231 or 8 × 10^6 OVCAR5 cells. When tumors were 50–100 mm^3 in size, the mice were randomly grouped and treated intraperitoneal (i.p.) with 50 mg/kg of Olaparib, 50 mg/kg of LY2835219, 50 mg/kg of ZC-22, or 1.5 mg/kg of cisplatin alone or in combinations or with the vehicle (PBS containing 10% DMSO and 10% 2-hydroxy-propyl-β-cyclodextrin) every 2 days. Tumor volume was measured every 3–4 days, which was calculated as Length × Width^2/2. At the end of the study, tumor and major organ tissues were harvested by surgery. For histopathological analysis, tissue samples were washed with PBS, fixed in 4% paraformaldehyde (PFA), paraffin-embedded, and sectioned into 7 μm thickness. […]
Figure 7 ZC-22 increases the efficacy of cisplatin treatment in ovarian cancer cells in vivo. […] Tumor volumes were measured every 2–3 days. […] (B,C) Pictures (B) and quantification of the size (C) of the OVCAR5 xenograft tumors at the end points. […] (D,E) Representative pictures (D) and quantification of percentage (E) of Ki67 and γH2A.X-positive cells in immunohistochemical staining of the OVCAR5 xenograft tumor tissues. […]

[2] = system: γH2A.X; experiment: Immunofluorescence staining of γH2A.X foci; assay type: cell-based, human; conditions: MDA-MB-231 (2 μM) and OVCAR5 (0.5 μM) cells; 24 h
Experimental: Immunofluorescence-staining of γH2A.X was performed as described before. Briefly, cells were seeded on cover glasses in 24-well plates, cultured for 24–48 h, and then treated with cisplatin alone or together with Olaparib or ZC-22 for 24 h. After washing with PBS, cells were fixed by 4% PFA, permeated with 0.5% Triton-X100 in PBS, washed thrice with 0.1% PBS-Tween (PBST), blocked with 3% BSA in PBST, and then incubated with anti-γH2A.X antibody overnight at 4 °C. […] At least 150 cells in three fields were counted for each repeat.
Figure 3 ZC-22 inhibits CDK4/6 and PARP to induce cell-cycle arrest, DNA damage, and apoptosis in breast and ovarian cancer cells. […] The levels of CDK4/6 and p-Rb/Rb were determined by Western blot (A). Cell-cycle distribution was analyzed by flow cytometry (B). […] (D,E) Representative pictures (left) and quantification of percentage (right) of γH2A.X-positive cells in MDA-MB-231 cells treated with 2 μM OLA or ZC-22 for 24 h (D), or OVCAR5 cells treated with 0.5 μM OLA or ZC-22 for 24 h (E). Values are means ± SD, n = 3. * p < 0.05, ** p < 0.01, and *** p < 0.001 for comparisons with the DMSO-treated group. p value was calculated using an unpaired t-test. […] Values are means ± SD, n = 3. * p < 0.05, ** p < 0.01, and *** p < 0.001 vs. the DMSO-treated group. p value was calculated using an unpaired t-test. […]

In the case of `Cc1nc2c(F)cc(-c3nc(Nc4ccc(N5CCN(C(=O)c6cc(Cc7n[nH]c(=O)c8ccccc78)ccc6F)CC5)cn4)ncc3F)cc2n1C(C)C` [ZC-22, 4-(4-fluoro-3-(4-(6-((5-fluoro-4-(4-fluoro-1-isopropyl-2-methyl-1H-benzo[d]imidazole-6-yl)pyrimidin-2-yl)amino)pyridin-3-yl)piperazine-1-carbonyl)benzyl)phthalazin-1(2H)-one], the “sensitization to cisplatin treatment (tumor growth)” value [1] was “significantly sensitized ovarian cancer cells to cisplatin treatment” and the “formation of γH2A.X foci” value [2] was “notably induced formation of γH2A.X foci”.
